Reference: PubChem BioAssay AID2060499 (Molecular Pharmacology Branch, DTP, NCI, 2025)

System: 777334-354-R2-J4-PDC tumor spheroids with HUVEC/MSC, viability
Test: Anticancer human tumor 777334-354-R2-J4-PDC patient-derived pancreatic adenocarcinoma cell line growth inhibition [GQUAD]
Conditions: for IC50: curve of first compound; for viability, T/C: stronger effect = lower value; active = viability on the fitted dose curve at most 10% of control; inactive = the rest
How it was run: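 Multi-cell-type spheroids of tumor cells with HUVEC and mesenchymal stem cells, treated with drug combinations. Concentrations descend in half-log steps from near clinical Cmax, or from 10 microM where Cmax is unknown; viability read-out.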

[1] = second compound 0.0316 µM, first compound 0.000999 µM
[2] = second compound 0.0316 µM, first compound 0.00316 µM
[3] = second compound 0.0316 µM, first compound 0.00999 µM
[4] = second compound 0.0316 µM, first compound 0.0316 µM
[5] = second compound 0.0316 µM, first compound 0.0999 µM
[6] = second compound 0.0316 µM, first compound 0.316 µM
[7] = second compound 0.1 µM, first compound 0.000999 µM
[8] = second compound 0.1 µM, first compound 0.00316 µM
[9] = second compound 0.1 µM, first compound 0.00999 µM
[10] = second compound 0.1 µM, first compound 0.0316 µM
[11] = second compound 0.1 µM, first compound 0.0999 µM
[12] = second compound 0.1 µM, first compound 0.316 µM
[13] = second compound 0.316 µM, first compound 0.000999 µM
[14] = second compound 0.316 µM, first compound 0.00316 µM
[15] = second compound 0.316 µM, first compound 0.00999 µM
[16] = second compound 0.316 µM, first compound 0.0316 µM
[17] = second compound 0.316 µM, first compound 0.0999 µM
[18] = second compound 0.316 µM, first compound 0.316 µM
[19] = second compound 1 µM, first compound 0.000999 µM
[20] = second compound 1 µM, first compound 0.00316 µM
[21] = second compound 1 µM, first compound 0.00999 µM
[22] = second compound 1 µM, first compound 0.0316 µM
[23] = second compound 1 µM, first compound 0.0999 µM
[24] = second compound 1 µM, first compound 0.316 µM
[25] = second compound 3.16 µM, first compound 0.000999 µM
[26] = second compound 3.16 µM, first compound 0.00316 µM
[27] = second compound 3.16 µM, first compound 0.00999 µM
[28] = second compound 3.16 µM, first compound 0.0316 µM
[29] = second compound 3.16 µM, first compound 0.0999 µM
[30] = second compound 3.16 µM, first compound 0.316 µM
[31] = second compound 10 µM, first compound 0.000999 µM
[32] = second compound 10 µM, first compound 0.00316 µM
[33] = second compound 10 µM, first compound 0.00999 µM
[34] = second compound 10 µM, first compound 0.0316 µM
[35] = second compound 10 µM, first compound 0.0999 µM
[36] = second compound 10 µM, first compound 0.316 µM
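Note: spheroids exposed to compounds for 7 days before readout.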

Cn1ncnc1[C@H]1c2n[nH]c(=O)c3cc(F)cc(c23)N[C@@H]1c1ccc(F)cc1 + Cc1[nH]c2ccc(F)cc2c1-c1nc2c3cccnc3c3ncccc3c2[nH]1
> 316 nM: IC50 (second compound 0.0316 µM) | IC50 (second compound 0.1 µM) | IC50 (second compound 0.316 µM) | IC50 (second compound 1 µM)
< 0.999 nM: IC50 (second compound 3.16 µM) | IC50 (second compound 10 µM)
inactive: viability, T/C [1] 105% | viability, T/C [2] 87.4% | viability, T/C [3] 92% | viability, T/C [4] 95.9% | viability, T/C [5] 81.6% | viability, T/C [6] 90.3% | viability, T/C [7] 110% | viability, T/C [8] 102% | viability, T/C [9] 99.4% | viability, T/C [10] 83.9% | viability, T/C [11] 94.5% | viability, T/C [12] 88.2% | viability, T/C [13] 94.7% | viability, T/C [14] 97.9% | viability, T/C [15] 95.1% | viability, T/C [16] 85.5% | viability, T/C [17] 84% | viability, T/C [18] 74.7% | viability, T/C [19] 75.4% | viability, T/C [20] 91.9% | viability, T/C [21] 91.2% | viability, T/C [22] 81.9% | viability, T/C [23] 82.1% | viability, T/C [24] 65.5% | viability, T/C [25] 33.3% | viability, T/C [26] 33.7% | viability, T/C [27] 44.6% | viability, T/C [28] 22.8% | viability, T/C [29] 28.6% | viability, T/C [30] 43.8% | viability, T/C [31] 35.3% | viability, T/C [32] 37.6% | viability, T/C [33] 41.8% | viability, T/C [34] 28.7% | viability, T/C [35] 37.1% | viability, T/C [36] 31.5%

Cc1[nH]c2ccccc2c1CCNCc1ccc(/C=C/C(=O)NO)cc1 + Cc1cnc(CNC(=O)c2c(=O)c3ccc(N4CCCN(C)CC4)nc3n3c2sc2ccccc23)cn1
active: viability, T/C [36] 1.07%
155 nM: IC50 (second compound 0.1 µM)
144 nM: IC50 (second compound 0.0316 µM)
inactive: viability, T/C [1] 95.1% | viability, T/C [2] 89.1% | viability, T/C [3] 93.1% | viability, T/C [4] 73.6% | viability, T/C [5] 57.9% | viability, T/C [6] 35.5% | viability, T/C [7] 83.1% | viability, T/C [8] 69.4% | viability, T/C [9] 68.1% | viability, T/C [10] 73.2% | viability, T/C [11] 58.9% | viability, T/C [12] 35.3% | viability, T/C [13] 73.7% | viability, T/C [14] 79.5% | viability, T/C [15] 58.2% | viability, T/C [16] 69.3% | viability, T/C [17] 53.7% | viability, T/C [18] 32.9% | viability, T/C [19] 70.8% | viability, T/C [20] 66.2% | viability, T/C [21] 68.2% | viability, T/C [22] 58.1% | viability, T/C [23] 56% | viability, T/C [24] 26.4% | viability, T/C [25] 58% | viability, T/C [26] 58.6% | viability, T/C [27] 59.4% | viability, T/C [28] 53.8% | viability, T/C [29] 50.3% | viability, T/C [30] 18.6% | viability, T/C [31] 53.2% | viability, T/C [32] 46.2% | viability, T/C [33] 51.7% | viability, T/C [34] 46.1% | viability, T/C [35] 42.6%
114 nM: IC50 (second compound 1 µM)
89.3 nM: IC50 (second compound 3.16 µM)
< 0.999 nM: IC50 (second compound 10 µM)
122 nM: IC50 (second compound 0.316 µM)

CC(=O)O[C@H]1C(=O)[C@@]2(C)[C@H]([C@H](OC(=O)c3ccccc3)[C@]3(O)C[C@H](OC(=O)[C@H](O)[C@@H](NC(=O)c4ccccc4)c4ccccc4)C(C)=C1C3(C)C)[C@]1(OC(C)=O)CO[C@@H]1C[C@@H]2O + Cc1cnc(CNC(=O)c2c(=O)c3ccc(N4CCCN(C)CC4)nc3n3c2sc2ccccc23)cn1
> 10000 nM: IC50 (second compound 0.0316 µM) | IC50 (second compound 0.1 µM) | IC50 (second compound 0.316 µM) | IC50 (second compound 1 µM) | IC50 (second compound 3.16 µM) | IC50 (second compound 10 µM)
inactive: viability, T/C [4] 70% | viability, T/C (second compound 0.0316 µM, first compound 0.1 µM) 49.9% | viability, T/C [6] 53.5% | viability, T/C (second compound 0.0316 µM, first compound 1 µM) 43% | viability, T/C (second compound 0.0316 µM, first compound 3.16 µM) 52.1% | viability, T/C (second compound 0.0316 µM, first compound 10 µM) 52.8% | viability, T/C [10] 78.2% | viability, T/C (second compound 0.1 µM, first compound 0.1 µM) 54.7% | viability, T/C [12] 61.6% | viability, T/C (second compound 0.1 µM, first compound 1 µM) 45.4% | viability, T/C (second compound 0.1 µM, first compound 3.16 µM) 60.9% | viability, T/C (second compound 0.1 µM, first compound 10 µM) 59.7% | viability, T/C [16] 74.3% | viability, T/C (second compound 0.316 µM, first compound 0.1 µM) 61.9% | viability, T/C [18] 61.5% | viability, T/C (second compound 0.316 µM, first compound 1 µM) 68.1% | viability, T/C (second compound 0.316 µM, first compound 3.16 µM) 64.2% | viability, T/C (second compound 0.316 µM, first compound 10 µM) 62.1% | viability, T/C [22] 65% | viability, T/C (second compound 1 µM, first compound 0.1 µM) 63.5% | viability, T/C [24] 61% | viability, T/C (second compound 1 µM, first compound 1 µM) 67.3% | viability, T/C (second compound 1 µM, first compound 3.16 µM) 80.5% | viability, T/C (second compound 1 µM, first compound 10 µM) 70.1% | viability, T/C [28] 57% | viability, T/C (second compound 3.16 µM, first compound 0.1 µM) 66.5% | viability, T/C [30] 63.6% | viability, T/C (second compound 3.16 µM, first compound 1 µM) 58.4% | viability, T/C (second compound 3.16 µM, first compound 3.16 µM) 71.6% | viability, T/C (second compound 3.16 µM, first compound 10 µM) 74.1% | viability, T/C [34] 61.2% | viability, T/C (second compound 10 µM, first compound 0.1 µM) 50.1% | viability, T/C [36] 55.8% | viability, T/C (second compound 10 µM, first compound 1 µM) 58.4% | viability, T/C (second compound 10 µM, first compound 3.16 µM) 60.6% | viability, T/C (second compound 10 µM, first compound 10 µM) 52.3%
